According to ChEMBL document CHEMBL1201862, “PubChem BioAssay data set” (2004):
pIC50: −log10 of the molar value. Activity calls are given as the source filed them.

Experiments:
[1] = biological target: T1, Kappa-type opioid receptor (Homo sapiens, UniProt P41145); format: functional
Mu-type opioid receptor = Mu-type opioid receptor (Homo sapiens, UniProt P35372); assay: HTS Image-Based Screen for Agonists of the MOR Receptor. [Related pubchem assays (depositor defined):AID1777, AID1785, AID1786, AID2133]; format: functional;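 note: imaging of beta-arrestin GFP recruitment into spots after receptor activation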
Paired box protein Pax-8 = Paired box protein Pax-8 (Homo sapiens, UniProt Q06710); assay: inhibitors of PAX8-driven TPO luciferase reporter, dose response, RMG-I cells, cherry-pick (AID 687027); format: functional, cell-based;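 note: luciferase reporter driven by Pax8 target thyroperoxidase promoter measured by SteadyGlo luminescence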
[2] = biological target: T2, Delta-type opioid receptor (Homo sapiens, UniProt P41143); assay: HTS Image-Based Screen for Antagonists of the DOR Receptor. [Related pubchem assays (depositor defined):AID1777, AID1785, AID1786, AID2133]; format: functional
[3] = biological target: T3, Type-1 angiotensin II receptor (Homo sapiens, UniProt P30556); assay: AT1 receptor antagonists, dose response, selectivity assay for APJ receptor antagonist project, cell-based, uHTS hits (AID 463214); format: functional;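 note: antagonist potency against angiotensin II stimulated AT1 response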
T3 sequence (P30556 whole entry): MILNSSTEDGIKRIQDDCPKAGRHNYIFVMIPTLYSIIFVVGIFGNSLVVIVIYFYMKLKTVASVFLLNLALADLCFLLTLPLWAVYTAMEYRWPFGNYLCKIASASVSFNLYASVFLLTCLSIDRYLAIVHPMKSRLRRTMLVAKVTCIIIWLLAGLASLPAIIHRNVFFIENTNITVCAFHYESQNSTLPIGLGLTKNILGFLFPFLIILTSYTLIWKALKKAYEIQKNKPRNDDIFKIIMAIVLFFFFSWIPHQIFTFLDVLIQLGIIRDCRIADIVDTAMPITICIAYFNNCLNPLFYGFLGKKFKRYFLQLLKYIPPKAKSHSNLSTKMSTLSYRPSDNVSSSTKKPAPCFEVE

[4] = biological target: Bifunctional protein GlmU (Mycobacterium tuberculosis, UniProt P9WMN3); assay: Inhibitors of Mycobacterial Glucosamine-1-phosphate acetyl transferase (GlmU). Secondary screen.; set-up: species or system Mycobacterium tuberculosis H37Rv
Vero = Vero cell cytotoxicity, cytotoxicity control for flavivirus capping enzyme inhibitors (AID 588742); format: functional; settings: Chlorocebus sabaeus
[5] = biological target: T2, Delta-type opioid receptor; assay: HTS Image-Based Screen for Agonists of the DOR Receptor. [Related pubchem assays (depositor defined):AID1777, AID1786, AID2133]; format: functional
Beta Lactamase = Beta Lactamase (Pseudomonas aeruginosa, UniProt Q932Y6); assay: beta-lactamase reporter inhibitor potency, dose response, artefact control for TLR9-MyD88 binding inhibitor project, BLA reporter cells, FRET fluorescence (AID 588341); format: cell-based;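 note: cell based assay in CHO-K1 cells stably expressing beta-lactamase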
Beta-galactosidase [6] = biological target: T4, Beta-galactosidase (Escherichia coli, UniProt Q8VNN2); format: functional
Genome polyprotein = Genome polyprotein (dengue virus type 2, UniProt P29990); assay: Dengue-2 NS5 methyltransferase inhibitors, primary screen, biochemical, confirmation dose response (AID 588689); format: functional
Beta-galactosidase [7] = biological target: T4, Beta-galactosidase; assay: PubChem AID 485352; format: functional
[8] = biological target: G-protein coupled receptor 55 (Homo sapiens, UniProt Q9Y2T6); assay: GPR55 antagonists blocking LPI-driven arrestin recruitment, primary screen, imaging, U2OS, beta-arrestin-GFP, LPI agonist (AID 2013); format: functional;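 note: antagonist potency measured as reduced agonist-driven arrestin aggregation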
CHO = assay: cytotoxicity in TLR9-MyD88 CHO cells, dose response, cytotoxicity control for TLR9-MyD88 binding inhibitor project, cell-based, luminescence (AID 588339); format: functional, hamster; settings: Cricetulus griseus;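 note: CHO cells stably coexpressing TLR9 and MyD88 fusions from primary screen; compound exposure lasted 48 hours before viability readout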
[9] = biological target: T1, Kappa-type opioid receptor; format: functional; remark: listed apart in the source
Protein Tat = Protein Tat (Human immunodeficiency virus type 1 group M subtype B (isolate HXB2)(HIV-1), UniProt P04608); format: functional;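 note: tat binding to TAR RNA read out by fluorescence polarization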
[10] = biological target: RNA-editing ligase 1, mitochondrial (Trypanosoma brucei brucei, UniProt P86926); assay: TbREL1 ligase inhibitors, dose response, biochemical, fluorescence, Trypanosoma brucei (AID 1117295); format: functional
Chain of RNA-editing ligase 1, mitochondrial (P86926 whole entry): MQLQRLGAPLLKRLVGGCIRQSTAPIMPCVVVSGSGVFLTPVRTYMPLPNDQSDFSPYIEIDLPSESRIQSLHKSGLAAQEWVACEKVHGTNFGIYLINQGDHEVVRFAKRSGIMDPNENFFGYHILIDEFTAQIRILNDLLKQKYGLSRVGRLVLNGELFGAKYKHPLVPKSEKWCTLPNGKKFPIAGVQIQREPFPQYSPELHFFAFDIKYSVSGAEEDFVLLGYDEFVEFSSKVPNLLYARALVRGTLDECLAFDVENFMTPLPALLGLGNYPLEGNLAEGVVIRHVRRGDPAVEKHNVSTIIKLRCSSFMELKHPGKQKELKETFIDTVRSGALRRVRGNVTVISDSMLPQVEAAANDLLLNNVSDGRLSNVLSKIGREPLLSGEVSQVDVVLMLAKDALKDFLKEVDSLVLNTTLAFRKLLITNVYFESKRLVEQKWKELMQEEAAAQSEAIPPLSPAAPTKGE

T1 sequence (P41145 whole entry): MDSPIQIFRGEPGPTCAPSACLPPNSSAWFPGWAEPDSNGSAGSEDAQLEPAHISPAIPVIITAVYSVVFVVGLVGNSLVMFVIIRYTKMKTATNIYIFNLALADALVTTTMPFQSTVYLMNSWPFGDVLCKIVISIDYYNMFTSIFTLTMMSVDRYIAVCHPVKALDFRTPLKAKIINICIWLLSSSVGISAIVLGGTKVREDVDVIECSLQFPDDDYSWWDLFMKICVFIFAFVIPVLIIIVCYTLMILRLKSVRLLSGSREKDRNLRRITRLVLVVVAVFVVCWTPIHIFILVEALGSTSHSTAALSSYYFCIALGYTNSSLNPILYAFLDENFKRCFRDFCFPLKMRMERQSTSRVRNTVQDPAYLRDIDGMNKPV
T2 sequence (P41143 whole entry): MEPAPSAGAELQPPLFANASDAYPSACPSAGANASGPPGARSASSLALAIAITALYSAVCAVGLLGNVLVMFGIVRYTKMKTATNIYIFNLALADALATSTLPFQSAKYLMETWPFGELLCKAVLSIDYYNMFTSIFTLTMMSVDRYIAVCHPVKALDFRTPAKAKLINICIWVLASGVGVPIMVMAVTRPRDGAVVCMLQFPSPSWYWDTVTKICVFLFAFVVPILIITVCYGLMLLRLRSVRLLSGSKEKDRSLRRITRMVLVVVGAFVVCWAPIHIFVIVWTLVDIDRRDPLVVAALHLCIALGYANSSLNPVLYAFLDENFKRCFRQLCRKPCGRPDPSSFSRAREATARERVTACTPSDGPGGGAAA
T4 sequence (Q8VNN2 whole entry): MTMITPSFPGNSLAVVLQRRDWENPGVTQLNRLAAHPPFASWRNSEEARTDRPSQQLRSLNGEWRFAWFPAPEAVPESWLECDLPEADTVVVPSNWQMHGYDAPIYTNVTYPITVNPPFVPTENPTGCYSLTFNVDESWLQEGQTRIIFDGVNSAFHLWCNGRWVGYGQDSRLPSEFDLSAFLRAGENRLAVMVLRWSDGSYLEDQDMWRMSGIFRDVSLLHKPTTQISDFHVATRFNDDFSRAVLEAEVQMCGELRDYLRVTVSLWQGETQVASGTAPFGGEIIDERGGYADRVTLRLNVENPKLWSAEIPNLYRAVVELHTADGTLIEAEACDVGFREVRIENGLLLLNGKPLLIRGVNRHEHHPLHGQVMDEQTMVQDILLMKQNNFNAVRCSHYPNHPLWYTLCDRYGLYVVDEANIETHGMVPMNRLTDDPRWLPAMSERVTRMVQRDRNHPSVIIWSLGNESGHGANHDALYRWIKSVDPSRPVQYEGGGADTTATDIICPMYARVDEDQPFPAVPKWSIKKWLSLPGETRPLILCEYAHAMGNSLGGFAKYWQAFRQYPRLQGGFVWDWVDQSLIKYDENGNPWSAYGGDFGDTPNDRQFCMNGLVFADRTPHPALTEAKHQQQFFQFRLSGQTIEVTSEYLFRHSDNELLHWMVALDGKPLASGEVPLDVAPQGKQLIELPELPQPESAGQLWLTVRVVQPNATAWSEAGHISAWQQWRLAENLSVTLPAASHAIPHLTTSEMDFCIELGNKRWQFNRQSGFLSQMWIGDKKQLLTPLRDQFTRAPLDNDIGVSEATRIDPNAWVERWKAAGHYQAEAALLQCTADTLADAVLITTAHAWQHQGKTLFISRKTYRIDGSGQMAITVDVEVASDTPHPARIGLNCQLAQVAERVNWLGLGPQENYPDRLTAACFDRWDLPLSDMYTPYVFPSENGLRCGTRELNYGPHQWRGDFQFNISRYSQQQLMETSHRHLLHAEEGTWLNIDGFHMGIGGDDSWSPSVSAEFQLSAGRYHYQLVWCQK
Chain of Bifunctional protein GlmU (P9WMN3 whole entry): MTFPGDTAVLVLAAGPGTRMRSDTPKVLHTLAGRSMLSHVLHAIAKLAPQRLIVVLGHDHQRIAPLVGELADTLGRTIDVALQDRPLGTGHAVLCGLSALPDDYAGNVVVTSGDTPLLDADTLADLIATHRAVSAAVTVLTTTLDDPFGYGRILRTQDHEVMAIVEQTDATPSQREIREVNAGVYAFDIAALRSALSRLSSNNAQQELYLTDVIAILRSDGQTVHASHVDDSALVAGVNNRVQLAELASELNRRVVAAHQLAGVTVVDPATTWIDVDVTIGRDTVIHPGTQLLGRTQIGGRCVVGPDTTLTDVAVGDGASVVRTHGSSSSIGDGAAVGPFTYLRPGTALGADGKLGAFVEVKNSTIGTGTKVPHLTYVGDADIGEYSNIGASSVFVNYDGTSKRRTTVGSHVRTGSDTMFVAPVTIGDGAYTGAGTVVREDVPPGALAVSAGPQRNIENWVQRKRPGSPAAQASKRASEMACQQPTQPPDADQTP
Chain of Genome polyprotein (P29990 2492-3391 limits assumed): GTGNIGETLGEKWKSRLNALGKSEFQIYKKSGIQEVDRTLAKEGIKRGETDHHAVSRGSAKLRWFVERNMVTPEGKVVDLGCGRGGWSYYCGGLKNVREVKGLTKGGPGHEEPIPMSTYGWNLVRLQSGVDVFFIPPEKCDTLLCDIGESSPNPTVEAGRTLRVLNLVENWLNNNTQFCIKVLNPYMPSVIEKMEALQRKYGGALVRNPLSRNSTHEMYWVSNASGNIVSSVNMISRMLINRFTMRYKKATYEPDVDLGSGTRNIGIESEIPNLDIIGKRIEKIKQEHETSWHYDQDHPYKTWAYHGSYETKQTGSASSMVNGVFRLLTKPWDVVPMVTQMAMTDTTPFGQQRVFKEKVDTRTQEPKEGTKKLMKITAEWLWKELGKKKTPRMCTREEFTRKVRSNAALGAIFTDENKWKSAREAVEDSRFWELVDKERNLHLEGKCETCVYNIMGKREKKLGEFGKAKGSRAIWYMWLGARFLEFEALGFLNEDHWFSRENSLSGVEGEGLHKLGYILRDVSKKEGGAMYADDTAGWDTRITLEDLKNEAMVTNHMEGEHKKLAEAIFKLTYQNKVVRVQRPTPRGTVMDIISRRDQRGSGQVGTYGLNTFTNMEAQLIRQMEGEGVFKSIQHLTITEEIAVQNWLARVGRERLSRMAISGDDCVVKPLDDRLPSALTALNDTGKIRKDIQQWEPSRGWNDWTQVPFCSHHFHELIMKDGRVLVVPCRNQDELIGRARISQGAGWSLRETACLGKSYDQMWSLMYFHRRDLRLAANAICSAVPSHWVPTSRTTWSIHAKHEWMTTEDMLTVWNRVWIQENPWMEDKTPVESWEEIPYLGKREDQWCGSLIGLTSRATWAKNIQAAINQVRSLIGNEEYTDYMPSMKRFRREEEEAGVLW
Chain of Paired box protein Pax-8 (Q06710 whole entry): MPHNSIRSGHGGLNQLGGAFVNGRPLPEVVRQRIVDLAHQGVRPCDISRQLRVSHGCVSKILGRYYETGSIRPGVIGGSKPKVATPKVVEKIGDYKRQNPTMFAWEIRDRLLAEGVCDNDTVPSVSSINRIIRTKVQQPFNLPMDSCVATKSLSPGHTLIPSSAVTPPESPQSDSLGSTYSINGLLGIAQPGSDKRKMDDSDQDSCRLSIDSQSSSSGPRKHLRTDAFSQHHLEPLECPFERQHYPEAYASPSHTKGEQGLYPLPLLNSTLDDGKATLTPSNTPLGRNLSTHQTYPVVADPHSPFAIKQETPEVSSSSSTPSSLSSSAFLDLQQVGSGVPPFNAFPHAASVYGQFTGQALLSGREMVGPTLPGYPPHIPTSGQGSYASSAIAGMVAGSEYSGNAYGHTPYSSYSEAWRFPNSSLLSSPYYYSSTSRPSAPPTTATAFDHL
Chain of Protein Tat (P04608 whole entry): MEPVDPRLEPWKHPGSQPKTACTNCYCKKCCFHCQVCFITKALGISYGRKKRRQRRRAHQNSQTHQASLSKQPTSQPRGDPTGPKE
Chain of G-protein coupled receptor 55 (Q9Y2T6 whole entry, the tested form may be a part): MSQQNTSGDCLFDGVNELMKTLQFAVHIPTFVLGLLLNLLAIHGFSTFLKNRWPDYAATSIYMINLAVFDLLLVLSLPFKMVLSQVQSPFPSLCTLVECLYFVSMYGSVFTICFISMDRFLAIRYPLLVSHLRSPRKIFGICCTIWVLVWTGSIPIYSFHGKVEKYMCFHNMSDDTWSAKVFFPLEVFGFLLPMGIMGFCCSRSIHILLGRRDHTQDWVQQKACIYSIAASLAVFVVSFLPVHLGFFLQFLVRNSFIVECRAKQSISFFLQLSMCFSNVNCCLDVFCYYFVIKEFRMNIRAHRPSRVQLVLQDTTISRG
Chain of Beta Lactamase (Q932Y6 whole entry): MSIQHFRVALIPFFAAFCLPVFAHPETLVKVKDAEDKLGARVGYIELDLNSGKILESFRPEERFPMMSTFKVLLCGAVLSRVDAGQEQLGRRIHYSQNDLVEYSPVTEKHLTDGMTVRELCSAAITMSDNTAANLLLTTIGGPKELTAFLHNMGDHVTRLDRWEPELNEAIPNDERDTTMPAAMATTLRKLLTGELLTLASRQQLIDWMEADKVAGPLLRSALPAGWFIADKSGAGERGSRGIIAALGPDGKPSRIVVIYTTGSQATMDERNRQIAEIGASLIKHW

SMILES: Cc1c(Nc2cc(Cl)c3nonc3c2[N+](=O)[O-])c(=O)n(-c2ccccc2)n1C
- IC50 [1]: 4.14 µM (active)
- EC50 (Mu-type opioid receptor): > 32 µM (inactive)
- AC50 (Paired box protein Pax-8): 8.97 µM (active)
- IC50 [2]: > 32 µM (inactive)
- IC50 [3]: 2.33 µM (active)
- IC50 [4]: 123 µM (active)
- CC50 (Vero): 12.7 µM (active)
- EC50 [5]: > 32 µM (inactive)
- IC50 (Beta Lactamase): 6 µM (active)
- EC50 (Beta-galactosidase [6]): > 31.5 µM (inactive)
- IC50 (Genome polyprotein): 21.4 µM (active)
- EC50 (Beta-galactosidase [7]): > 40 µM (inactive)
- IC50 [8]: 3.48 µM (active)
- IC50 (CHO): 1.53 µM (active)
- pIC50 [9]: 4.52

SMILES: CC1CCCN(C(=O)CN2CCN(C(=O)c3ccco3)CC2)C1 (configuration not stated)
- IC50 (Protein Tat): > 100 µM (active)

SMILES: C#CCOCCOCCOCCNc1nc(N2CCN(C(=O)[C@H](CCCCN)n3cc([C@@H](N)C(C)CC)nn3)CC2)nc(N2CCN(C(=O)[C@H](CCCCN)n3cc([C@@H](N)C(C)CC)nn3)CC2)n1 (some centres not stated)
- IC50 [10]: > 96.6 µM (inactive)
